Laboratory results from US20230381321A1, “CAMPTOTHECIN CONJUGATES” (priority 2022, published 2023).
Where two headings read alike, the source gives them in different places.

Legend:
Format in all cases: cell-based
[1] = tested on: renal carcinoma cells (786-O); assay: In vitro potency (CellTiter-Glo, 96 h) on 786-O; details: Homo sapiens, 786-0, 96 h, read-out: 786-O IC50
Procedure: (§1) In vitro potency was assessed on multiple cancer cell lines. All cell lines were authenticated by STR profiling at IDEXX Bioresearch and cultured for no more than 2 months after resuscitation. Cells cultured in log-phase growth were seeded for 24 hours in 96-well plates containing […] RPMI 1640 supplemented with 20% FBS. Serial dilutions of antibody-drug conjugates in cell culture media were prepared at 4x working concentrations, and 50 μL of each dilution was added to the 96-well plates. Following addition of test articles, cells were incubated with test articles for 4 days at […]. After 96 hours, growth inhibition was assessed by CellTiterGlo® (Promega, Madison, WI) and luminescence was measured on a plate reader.
(§2) Cell viability was determined by CellTiter-Glo staining after 96h exposure to ADC. ND=Not Determined. In the following tables, “Ex_” refers to a drug linker number. For example, “Ag4-Ex_4a” refers to a conjugate of an Ag4 antibody with drug linker 4a.

[2] = tested on: pancreatic cancer cells (BxPC3); assay: In vitro potency (CellTiter-Glo, 96 h) on BxPC3; details: Homo sapiens, BXPC-3, 96 h, read-out: BxPC3 IC50
Procedure: as §1, §2

[3] = tested on: anaplastic large cell lymphoma cells (DEL); assay: In vitro potency (CellTiter-Glo, 96 h) on DEL; details: 96 h, read-out: DEL IC50
Procedure: as §1, §2

[4] = tested on: anaplastic large cell lymphoma cells (DELBVR); assay: In vitro potency (CellTiter-Glo, 96 h) on DELBVR; details: 96 h, read-out: DELBVR IC50
Procedure: as §1, §2

[5] = tested on: anaplastic large cell lymphoma cells (Karpas299); assay: In vitro potency (CellTiter-Glo, 96 h) on Karpas299; details: Homo sapiens, KARPAS-299, 96 h, read-out: Karpas299 IC50
Procedure: as §1, §2

[6] = tested on: Hodgkin's lymphoma cells (L540cy); assay: In vitro potency (CellTiter-Glo, 96 h) on L540cy; details: L540cy, 96 h, read-out: L540cy IC50
Procedure: as §1, §2

[7] = In vitro potency (CellTiter-Glo, 96 h) on Ls174T; details: Homo sapiens, LS174T, read-out: Ls174T IC50
Procedure: as §1, §2

[8] = tested on: breast cancer cells (MDA-MB-231); assay: In vitro potency (CellTiter-Glo, 96 h) on MDA-MB-231; details: Homo sapiens, MDA-MB-231, 96 h, read-out: MDAMB 231 IC50
Procedure: as §1, §2

[9] = tested on: acute myeloid leukemia cells (MOLM-13); assay: In vitro potency (CellTiter-Glo, 96 h) on MOLM-13; details: Homo sapiens, MOLM-13, 96 h, read-out: MOLM-13 IC50
Procedure: as §1, §2

[10] = tested on: B-lymphocyte cancer cells (SU-DHL4); assay: In vitro potency (CellTiter-Glo, 96 h) on SU-DHL4; details: Homo sapiens, SU-DHL-4, 96 h, read-out: SU-DHL-4 IC50
Procedure: as §1, §2

[11] = CPT free drugs, CellTiter-Glo after 96 h exposure

SMILES	IC50 [1, 11] [nM]	IC50 [2, 11] [nM]	IC50 [3, 11] [nM]	IC50 [4, 11] [nM]	IC50 [5, 11] [nM]	IC50 [6, 11] [nM]	IC50 [7, 11] [nM]	IC50 [8, 11] [nM]	IC50 [9, 11] [nM]	IC50 [10, 11] [nM]	IC50 [9] [nM]	IC50 [1] [nM]	IC50 [2] [nM]	IC50 [3] [nM]	IC50 [4] [nM]	IC50 [5] [nM]	IC50 [6] [nM]	IC50 ([7]; 96 h) [nM]	IC50 [8] [nM]	IC50 [10] [nM]
CC[C@@]1(O)C(=O)OCc2c1cc1n(c2=O)Cc2c-1nc1cc(F)c(OC)c(Br)c1c2CN [Compound 2ad]	9	22	1	1	7	4	17	15	5	4										
CC[C@@]1(O)C(=O)OCc2c1cc1n(c2=O)Cc2c-1nc1cc(Br)c(OC)c(F)c1c2CN [Compound 2ah]	108	199	12	11	65	54	152	149	125	29										
CC[C@@]1(O)C(=O)OCc2c1cc1n(c2=O)Cc2c-1nc1cc(F)c(C)c(/C=C/c3ccc(OC)cc3)c1c2CN [Compound 2ai]	64	57	6	5	47	47	64	79	34	13										
C/C=C/c1c(C)c(F)cc2nc3c(c(CN)c12)Cn1c-3cc2c(c1=O)COC(=O)[C@]2(O)CC [Compound 2aj]	2	3	0.3	0.3	2	1	5	5	1	1										
CC[C@@]1(O)C(=O)OCc2c1cc1n(c2=O)Cc2c-1nc1cc3c(cc1c2CN)COC3 [Compound 2ak]											129									
C=C(C)c1c(C)c(F)cc2nc3c(c(CN)c12)Cn1c-3cc2c(c1=O)COC(=O)[C@]2(O)CC [Compound 2al]											2	4	7	1	1	4	2	11	9	1
C=Cc1c(C)c(F)cc2nc3c(c(CN)c12)Cn1c-3cc2c(c1=O)COC(=O)[C@]2(O)CC [Compound 2am, (S)-11-(aminomethyl)-4-ethyl-8-fluoro-4-hydroxy-9-methyl-10-vinyl-1,12-dihydro-14H-pyrano[3′,4′:6,7]indolizino[1,2-b]quinoline-3,14(4H)-dione]											2	2	4	0.3	0.3	2	1	5	5	1
CC[C@@]1(O)C(=O)OCc2c1cc1n(c2=O)Cc2c-1nc1cc(F)c(F)c(F)c1c2CN [Compound 2ap]	8	14	1	1	5	2	4	13	5	2										
CC[C@@]1(O)C(=O)OCc2c1cc1n(c2=O)Cc2c-1nc1cc3c(cc1c2CNC[C@H](O)CN1CCCCC1)OCO3 [Compound 7aa]											69	131	66	17	19	63	51	188	228	19
CC[C@@]1(O)C(=O)OCc2c1cc1n(c2=O)Cc2c-1nc1cc3c(cc1c2CNCCCN1CCN(C)CC1)OCO3 [Compound 7h]											93	44	43	5	6	57	23	40	67	21
CC[C@@]1(O)C(=O)OCc2c1cc1n(c2=O)Cc2c-1nc1cc3c(cc1c2CNCC(O)CN1CCOCC1)OCO3 (stereo partly drawn) [Compound 7i]											183	118	57	9	17	84	48	110	183	32
CC[C@@]1(O)C(=O)OCc2c1cc1n(c2=O)Cc2c-1nc1cc3c(cc1c2CNC[C@H](O)CO)OCO3 [Compound 7n]											137	66	47	5	6	57	23	39	96	21
CC[C@@]1(O)C(=O)OCc2c1cc1n(c2=O)Cc2c-1nc1cc3c(cc1c2CNC1CCN(C)CC1)OCO3 [Compound 7w]											26	15	13	2	2	8	6	16	26	6
CC[C@@]1(O)C(=O)OCc2c1cc1n(c2=O)Cc2c-1nc1cc3c(cc1c2CNC[C@@H](O)CN1CCCCC1)OCO3 [Compound 7z]											143	123	127	17	16	150	48	79	306	39
CC[C@@]1(O)C(=O)OCc2c1cc1n(c2=O)Cc2c-1nc1cc3c(cc1c2CN(C)CCCN)OCO3 [Compound 8, (5S)-14-[[3-aminopropyl(methyl)amino]methyl]-5-ethyl-5-hydroxy-7,18,20-trioxa-11,24-diazahexacyclo[11.11.0.02,11.04,9.015,23.017,21]tetracosa-1(13),2,4(9),14,16,21,23-heptaene-6,10-dione;2,2,2-trifluoroacetic acid]	113	52	8	16	54	44	131	125	47	15										
CC[C@@]1(O)C(=O)OCc2c1cc1n(c2=O)Cc2c-1nc1cc3c(cc1c2CNCCCNC)OCO3 [Compound 8a]											3	11	15	1	2	8	5	48	22	4
CC[C@@]1(O)C(=O)OCc2c1cc1n(c2=O)Cc2c-1nc1cc3c(cc1c2CNCCN1CCNCC1)OCO3 [Compound 8b]											91	102	51	8	13	62	56	111	260	17
CC[C@@]1(O)C(=O)OCc2c1cc1n(c2=O)Cc2c-1nc1cc3c(cc1c2CN1CCN(CCN)CC1)OCO3 [Compound 8c]											69	27	14	3	4	28	14	32	57	7
CC[C@@]1(O)C(=O)OCc2c1cc1n(c2=O)Cc2c-1nc1cc3c(cc1c2CNC(C)=O)OCO3 [Compound 12b]											3	12	11		1	8	4	22	28	1
